Species on record: Rattus norvegicus
Assay: Open TG-GATES - Regimen: Daily Repeat
Format: toxicity, organism-based, Sprague-Dawley
Parameters: regimen Daily Repeat, gender Male, age 6 weeks
Details: in vivo, po, 300 mg/kg, route gavage, dose level Middle; for APTT / Bas / Eos / Fbg / Hb / Ht / Lym / MCH / MCHC / MCV / Mono / Neu / PT / Plat / RBC / Ret / WBC: tissue Blood; for KIDNEY_L / KIDNEY_R / KIDNEY_TOTAL: tissue Kidney; for LIVER: tissue Liver; for A/G / ALP / ALT / AST / BUN / CRE / Ca / Cl / DBIL / GLC / IP / K / LDH / Na / PL / RALB / TBIL / TC / TG / TP / gamma-GTP: tissue Plasma

C[C@H]1O[C@H](O[C@H]2[C@H](O)[C@@H](O)[C@@H](O[C@H]3[C@H](O)[C@@H](O)C(O)O[C@@H]3CO)O[C@@H]2CO)[C@H](O)[C@@H](O)[C@@H]1N[C@H]1C=C(CO)[C@@H](O)[C@H](O)[C@H]1O (some centres not stated) [ACARBOSE]
TERMINAL_BW (72 h, time 3 day): 230.6 g
APTT (72 h, time 3 day): 16.3 s
Bas (72 h, time 3 day): 0.2%
Eos (72 h, time 3 day): 1%
Fbg (72 h, time 3 day): 299.4 mg/dL
Hb (72 h, time 3 day): 13.6 g/dL
Ht (72 h, time 3 day): 41%
Lym (72 h, time 3 day): 76.6%
MCH (72 h, time 3 day): 21 pg
MCHC (72 h, time 3 day): 33.3%
MCV (72 h, time 3 day): 63 fL
Mono (72 h, time 3 day): 3%
Neu (72 h, time 3 day): 18.4%
PT (72 h, time 3 day): 13 s
Plat (72 h, time 3 day): 120.6 x10_4/uL
RBC (72 h, time 3 day): 650.8 x10_4/ul
Ret (72 h, time 3 day): 7.2%
WBC (72 h, time 3 day): 104.1 x10_2/uL
KIDNEY_L (72 h, time 3 day): 1.1 g
KIDNEY_R (72 h, time 3 day): 1.1 g
KIDNEY_TOTAL (72 h, time 3 day): 2.1 g
LIVER (72 h, time 3 day): 11.2 g
A/G (72 h, time 3 day): 0.9
ALP (72 h, time 3 day): 1565.8 IU/L
ALT (72 h, time 3 day): 39.4 IU/L
AST (72 h, time 3 day): 67.2 IU/L
BUN (72 h, time 3 day): 12.6 mg/dL
CRE (72 h, time 3 day): 0.2 mg/dL
Ca (72 h, time 3 day): 10.7 mg/dL
Cl (72 h, time 3 day): 103 meq/L
DBIL (72 h, time 3 day): 0.01 mg/dL
GLC (72 h, time 3 day): 170.8 mg/dL
IP (72 h, time 3 day): 8.2 mg/dL
K (72 h, time 3 day): 3.9 meq/L
LDH (72 h, time 3 day): 89.6 IU/L
Na (72 h, time 3 day): 140.4 meq/L
PL (72 h, time 3 day): 148.4 mg/dL
RALB (72 h, time 3 day): 2.6 g/dL
TBIL (72 h, time 3 day): 0.06 mg/dL
TC (72 h, time 3 day): 81 mg/dL
TG (72 h, time 3 day): 98 mg/dL
TP (72 h, time 3 day): 5.5 g/dL
gamma-GTP (72 h, time 3 day): 1.2 IU/L
TERMINAL_BW ([…], time 7 day): 272.1 g
TERMINAL_BW ([…], time 14 day): 332.7 g
TERMINAL_BW ([…], time 28 day): 401.7 g
APTT ([…], time 7 day): 17.2 s
Bas ([…], time 7 day): 0%
Eos ([…], time 7 day): 1%
Fbg ([…], time 7 day): 323 mg/dL
Hb ([…], time 7 day): 14.1 g/dL
Ht ([…], time 7 day): 41.7%
Lym ([…], time 7 day): 74.6%
MCH ([…], time 7 day): 21.1 pg
MCHC ([…], time 7 day): 33.8%
MCV ([…], time 7 day): 62.4 fL
Mono ([…], time 7 day): 2.6%
Neu ([…], time 7 day): 21%
PT ([…], time 7 day): 13.1 s
Plat ([…], time 7 day): 128.3 x10_4/uL
RBC ([…], time 7 day): 669.4 x10_4/ul
Ret ([…], time 7 day): 6.1%
WBC ([…], time 7 day): 95.8 x10_2/uL
APTT ([…], time 14 day): 23.4 s
Bas ([…], time 14 day): 0%
Eos ([…], time 14 day): 0.8%
Fbg ([…], time 14 day): 272.2 mg/dL
Hb ([…], time 14 day): 14.8 g/dL
Ht ([…], time 14 day): 44%
Lym ([…], time 14 day): 78.8%
MCH ([…], time 14 day): 21 pg
MCHC ([…], time 14 day): 33.7%
MCV ([…], time 14 day): 62.2 fL
Mono ([…], time 14 day): 2%
Neu ([…], time 14 day): 17.8%
PT ([…], time 14 day): 13.2 s
Plat ([…], time 14 day): 126.6 x10_4/uL
RBC ([…], time 14 day): 706.8 x10_4/ul
Ret ([…], time 14 day): 5%
WBC ([…], time 14 day): 105.8 x10_2/uL
APTT ([…], time 28 day): 20.2 s
Bas ([…], time 28 day): 0%
Eos ([…], time 28 day): 1%
Fbg ([…], time 28 day): 282.8 mg/dL
Hb ([…], time 28 day): 15.3 g/dL
Ht ([…], time 28 day): 44.4%
Lym ([…], time 28 day): 79.6%
MCH ([…], time 28 day): 20.2 pg
MCHC ([…], time 28 day): 34.4%
MCV ([…], time 28 day): 58.6 fL
Mono ([…], time 28 day): 2%
Neu ([…], time 28 day): 16%
PT ([…], time 28 day): 13.7 s
Plat ([…], time 28 day): 95.8 x10_4/uL
RBC ([…], time 28 day): 757.4 x10_4/ul
Ret ([…], time 28 day): 2.2%
WBC ([…], time 28 day): 88.5 x10_2/uL
KIDNEY_L ([…], time 7 day): 1.1 g
KIDNEY_R ([…], time 7 day): 1.1 g
KIDNEY_TOTAL ([…], time 7 day): 2.3 g
KIDNEY_L ([…], time 14 day): 1.2 g
KIDNEY_R ([…], time 14 day): 1.3 g
KIDNEY_TOTAL ([…], time 14 day): 2.5 g
KIDNEY_L ([…], time 28 day): 1.4 g
KIDNEY_R ([…], time 28 day): 1.3 g
KIDNEY_TOTAL ([…], time 28 day): 2.7 g
LIVER ([…], time 7 day): 12.7 g
LIVER ([…], time 14 day): 15.1 g
LIVER ([…], time 28 day): 16.3 g
A/G ([…], time 7 day): 0.9
ALP ([…], time 7 day): 1607 IU/L
ALT ([…], time 7 day): 50 IU/L
AST ([…], time 7 day): 77.2 IU/L
BUN ([…], time 7 day): 16.4 mg/dL
CRE ([…], time 7 day): 0.2 mg/dL
Ca ([…], time 7 day): 10.9 mg/dL
Cl ([…], time 7 day): 104.2 meq/L
DBIL ([…], time 7 day): 0.012 mg/dL
GLC ([…], time 7 day): 183.6 mg/dL
IP ([…], time 7 day): 7.5 mg/dL
K ([…], time 7 day): 4.2 meq/L
LDH ([…], time 7 day): 80.6 IU/L
Na ([…], time 7 day): 142 meq/L
PL ([…], time 7 day): 147.6 mg/dL
RALB ([…], time 7 day): 2.6 g/dL
TBIL ([…], time 7 day): 0.054 mg/dL
TC ([…], time 7 day): 75 mg/dL
TG ([…], time 7 day): 91.6 mg/dL
TP ([…], time 7 day): 5.7 g/dL
gamma-GTP ([…], time 7 day): 1 IU/L
A/G ([…], time 14 day): 0.8
ALP ([…], time 14 day): 1744.6 IU/L
ALT ([…], time 14 day): 39 IU/L
AST ([…], time 14 day): 69.8 IU/L
BUN ([…], time 14 day): 16.2 mg/dL
CRE ([…], time 14 day): 0.2 mg/dL
Ca ([…], time 14 day): 10.6 mg/dL
Cl ([…], time 14 day): 105 meq/L
DBIL ([…], time 14 day): 0.01 mg/dL
GLC ([…], time 14 day): 186 mg/dL
IP ([…], time 14 day): 6.8 mg/dL
K ([…], time 14 day): 4.1 meq/L
LDH ([…], time 14 day): 95.2 IU/L
Na ([…], time 14 day): 142 meq/L
PL ([…], time 14 day): 141.6 mg/dL
RALB ([…], time 14 day): 2.7 g/dL
TBIL ([…], time 14 day): 0.05 mg/dL
TC ([…], time 14 day): 67.4 mg/dL
TG ([…], time 14 day): 135.4 mg/dL
TP ([…], time 14 day): 5.9 g/dL
gamma-GTP ([…], time 14 day): 1 IU/L
A/G ([…], time 28 day): 0.8
ALP ([…], time 28 day): 1170.4 IU/L
ALT ([…], time 28 day): 46.4 IU/L
AST ([…], time 28 day): 70.8 IU/L
BUN ([…], time 28 day): 15.6 mg/dL
CRE ([…], time 28 day): 0.2 mg/dL
Ca ([…], time 28 day): 10.8 mg/dL
Cl ([…], time 28 day): 105 meq/L
DBIL ([…], time 28 day): 0.012 mg/dL
GLC ([…], time 28 day): 190.8 mg/dL
IP ([…], time 28 day): 5.9 mg/dL
K ([…], time 28 day): 4.1 meq/L
LDH ([…], time 28 day): 82.6 IU/L
Na ([…], time 28 day): 142.2 meq/L
PL ([…], time 28 day): 141.6 mg/dL
RALB ([…], time 28 day): 2.7 g/dL
TBIL ([…], time 28 day): 0.048 mg/dL
TC ([…], time 28 day): 65.4 mg/dL
TG ([…], time 28 day): 154.8 mg/dL
TP ([…], time 28 day): 6 g/dL
gamma-GTP ([…], time 28 day): 1 IU/L

Source: ChEMBL document CHEMBL3885861, “Open TG-GATES”
